In one assay the target is T1, CHIP28 (Homo sapiens, UniProt P29972).
T1 construct: was comprised of AQP1 (the 28-kDa protein itself and the 35-60-kDa glycosylated protein); from tissue; host or cells: human erythrocytes (blood-bank units; small-scale purifications from freshly drawn whole blood)
T1 sequence (P29972 2-269 limits assumed): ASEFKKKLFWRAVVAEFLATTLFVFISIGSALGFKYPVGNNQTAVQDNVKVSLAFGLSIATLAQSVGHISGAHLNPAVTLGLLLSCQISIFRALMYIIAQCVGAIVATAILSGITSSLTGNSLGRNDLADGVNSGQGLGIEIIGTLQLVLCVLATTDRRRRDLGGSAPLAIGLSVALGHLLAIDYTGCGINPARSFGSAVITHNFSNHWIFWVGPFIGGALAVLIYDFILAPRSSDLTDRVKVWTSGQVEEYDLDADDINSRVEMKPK
Nature of the assay: Stopped-flow water flux (Pf) in CHIP28 proteoliposomes, effect of mercurial reagents. It is filed as biochemical. Conditions: 1 mM. The procedure: Purified AQP1 was stored overnight at 0° C. or frozen for several days at -80° C. prior to reconstitution. Reconstitution into proteoliposomes was carried out in a final volume of 1 ml containing 60-90 μg of purified AQP 1 protein in chromatography buffer, 9 mg of bath-sonicated E. coli phospholipid, 1.25% (w/v) octyl glucoside, and 50 mM Tris-HCl (pH 7.5). The mixture was briefly blended on a vortex mixer and incubated for 20 minutes on ice. Proteoliposomes (or liposomes prepared without protein) were formed at room temperature by rapidly injecting the mixture into 25 ml of buffer A [50 mM MOPS, pH 7.5, 150 mM N-methyl-D-glucamine (NMDG) chloride also containing 10-15 mM carboxyfluorescein, 1 mM dithiothreitol, and 0.5 mM PMSF]. For the measurement of proton permeability, proteoliposomes and liposomes were loaded with buffer B (5 mM MOPS, pH 7.5, 150 mM KCl, 0.5 mM carboxyfluorescein, 1 mM dithiothreitol, and 0.5 mM PMSF). The suspension was incubated for 20 minutes at room temperature. Proteoliposomes or liposomes were collected by centrifugation for 1 hour at 123000×g in a Beckman Type 42.1 rotor at 4° C. The pellet was resuspended in 8 ml of buffer A or B and then centrifuged for 1 hour at 152000×g in a Beckman Type 50 Ti rotor. Proteoliposomes or liposomes were resuspended in 300 μl of buffer A or B and stored at 4° C. for 16-24 hours. Typically 50% (54±6%, n=5) of the AQP1 protein and 70% of the phospholipid were recovered in proteoliposomes. The lipid to protein ratio was in the range of 120:1 to 219:1. These proteoliposomes have internal volumes of 1 μl/mg of phospholipid (Ambudkar and Maloney, 1986, J. Biol. Chem. 261:10079-10086). Protein and phospholipid were measured as described by Ambudkar & Maloney (J. Biol. Chem., 1986, 261:10079-10086).
(§1) Permeability measurements. Membrane permeability measurements (Pf) were measured by exposing AQP1 proteoliposomes or control liposomes to an osmotic gradient by rapid mixing with an equal volume of another solution containing buffer A plus sufficient sucrose to increase osmolality in the mixed solutions to a value 120% of that in the original solution. This was performed with a stopped-flow fluorometer (SF.17MV, Applied Photophysics, Leatherhead, U.K.) with a measured dead time of 0.7 ms. The excitation wavelength was set at 490±1.5 nm using a 150-W mercury-xenon arc lamp and monochromator (.function.3.4 grating monochromator, both from Applied Photophysics); the emission wavelength was >515 nm using a cut-on filter (Oriel Corp., Stratford, Conn.). Extravesicular carboxyfluorescein fluorescence was completely quenched using anti-fluorescein antibody (Harris et al., 1990, Am. J. Physiol. 259:F366-F371).
Within the range of osmolalities used in these experiments, the vesicles acted as perfect osmometers, and relative volume (absolute volume divided by initial volume) was linearly related to relative fluorescence (absolute fluorescence divided by initial fluorescence). The data obtained from 8 to 16 determinations was averaged and fit to single-exponential curves using 5 software provided by Applied Photophysics (Zeidel et al., 1992, Biochemistry 31:589-596). The fitting parameters were then used to determine Pf by first applying the linear conversion from relative fluorescence to relative volume and then iteratively solving the water permeability equation using MathCAD software (MathSoft, Cambridge, Mass.):
dV(t)/dt=(Pf)(SAV)(MVW)[(Cin /V(t))-Cout ] (1)
where V(t) is relative intravesicular volume as a function of time, Pf is osmotic water permeability in centimeters per second, SAV is the vesicle surface area to volume ratio, MVW is the molar volume of water (18 cm^3 /mol), and Cin and Cout are the initial concentrations of total solute inside and outside the vesicle, respectively (Zeidel et al., 1992, Biochemistry 31:589-596).
Effect of mercural reagents.

Assay [1] can be described thus: Stopped-flow water flux (Pf) in control liposomes, effect of mercurial reagents. It is filed as biochemical. Conditions: 1 mM mercurial. As for the experimental part:
(§2) Purified AQP1 was stored overnight at 0° C. or frozen for several days at -80° C. prior to reconstitution. Reconstitution into proteoliposomes was carried out in a final volume of 1 ml containing 60-90 μg of purified AQP 1 protein in chromatography buffer, 9 mg of bath-sonicated E. coli phospholipid, 1.25% (w/v) octyl glucoside, and 50 mM Tris-HCl (pH 7.5). The mixture was briefly blended on a vortex mixer and incubated for 20 minutes on ice. […] Protein and phospholipid were measured as described by Ambudkar & Maloney (J. Biol. Chem., 1986, 261:10079-10086).
as §1, with “The excitation wavelength was set at 490±1.5 nm using a 150-W mercury-xenon arc lamp and monochromator (.function.3.4 grating monochromator, both from Applied Photophysics); the emission wavelength was >515 nm using a cut-on filter (Oriel Corp., Stratford, Conn.).” left out, “259:F366-F371). […]” for “259:F366-F371).”

For a further assay, the system named is human RBC. As to conditions: cited from earlier work.
The nature of assay [2]: Proton permeability (PH+) of CHIP28 proteoliposomes. It is filed as biochemical. As to conditions: 1 μM gramicidin A added to vesicles. The procedure: as §2, with “ice. Proteoliposomes (or liposomes prepared without protein) were formed at room temperature by rapidly injecting the mixture into 25 ml of buffer A [50 mM MOPS, pH 7.5, 150 mM N-methyl-D-glucamine (NMDG) chloride also containing 10-15 mM carboxyfluorescein, 1 mM dithiothreitol, and 0.5 mM PMSF].” for “ice.”
Exclusion of protons. […] Proton permeability was measured in CHIP28-containing liposomes containing 150 mM KCl and 5 mM MOPS, incorporating 1 μM valinomycin to prevent accumulation of protons from generating a positive intravesicular voltage. […] Over the pH range employed, fluorescence was linearly related to pH; extravesicular fluorescence was quenched with anti-fluorescein antibody. To ensure that increases in PH+ caused by CHIP28 could have been detected, 1 μM gramicidin A was added and increased PH+ by over 50-fold in each experiment.

The next assay relates to Xenopus oocytes. Nature of the assay: Two electrode voltage clamp of AQP5-expressing oocytes. Type of assay: cell-based. As to conditions: electrophysiological studies, not shown. As for the experimental part:
Functional expression in Oocytes--A 1-kb BamHI fragment containing the 5' untranslated sequence and the entire open reading frame of the salivary cDNA was blunt-end-ligated into the BglII site of the Xenopus expression construct pXβG, which contains the HindIII-Pst insert of pSP64T in pBS II KS (Preston et al., 1992, Science, 256:385-387). Capped cRNA was synthesized in vitro after digestion with Xbal (Preston et al., 1993). Defolliculated stage V-VI Xenopus oocytes were injected with 50 nl of water or up to 5 ng of sample cRNAs and incubated for 3 days at 18° C. in 200 mosM modified Barth's buffer. The oocytes were transferred to 70 mosM modified Barth's buffer at 21° C.; oocyte swelling was monitored by videomicroscopy, and the coefficient of osmotic water permeability (Pf) was determined (Preston et al., 1992, 1993). Uptake of [^14 C]urea or [^14 C]glycerol was measured by incubating oocytes in 200 mosM Barth's buffer for 10-20 min at 21° C. followed by washing and SDS solubilization. No increase in ion conductance was found when control oocytes were compared to RNA-injected oocytes by two electrode voltage clamps (Preston et al, 1992).
A general note: In two-electrode clamp one electrode senses voltage and the other passes current.

As to `O=S(=O)([O-])c1cc[c]([Hg][Cl])cc1` [pCMBS, p-chloromercuribenzene sulfonate], at CHIP28 (37° C.), the “inhibition of Pf at 5 and 10 minutes” value was “partial”; the “time to complete inhibition of Pf” value lay in the range of 20 to 30 min. Besides, the “Pf in CHIP28 proteoliposomes after mercurial” value on CHIP28 (37° C. (FIG. 12: pCMBS 25 minutes, HgCl2 3 minutes)) came to 0.009±0.005 cm/s. Moreover, in assay [1], the “effect on the Pf of control liposomes” value is “Neither pCMBS nor HgCl2 had any effect”.
Consider `O=C(CCc1ccc(O)cc1)c1c(O)cc(O)cc1O` [Phloretin], for which, in the assay on human RBC, the “urea flux in human RBC” value is listed as “inhibits urea flux” and the “water flux in human RBC” value is reported as “without altering water flux”.
Regarding gramicidin A, in assay [2], the “increase of PH+” value is recorded as “over 50 fold”.

B1: AQP5: 265-residue rat salivary water channel protein, 5th mammalian Aquaporin (protein, UniProt P47864 1-265, looked up)
Aquaporin-5: MKKEVCSLAFFKAVFAEFLATLIFVFFGLGSALKWPSALPTILQISIAFGLAIGTLAQALGPVSGGHINPAITLALLIGNQISLLRAVFYVAAQLVGAIAGAGILYWLAPLNARGNLAVNALNNNTTPGKAMVVELILTFQLALCIFSSTDSRRTSPVGSPALSIGLSVTLGHLVGIYFTGCSMNPARSFGPAVVMNRFSPSHWVFWVGPIVGAMLAAILYFYLLFPSSLSLHDRVAVVKGTYEPEEDWEDHREERKKTIELTAH
Take B1: in the assay on Xenopus oocytes, the membrane conductance entry is “failed to reveal increased membrane conductance”.

Source of the values: patent US5858702A, “Isolation, cloning and expression of transmembrane water channel Aquaporin 5 (AQP5)” (The Johns Hopkins University, priority 1995, dated 1999).
